Measurements published in patent US9572890B2, “Oral formulations of mitochondrially-targeted antioxidants and their preparation and use” (MITOTECH SA, priority 2011, dated 2017).

What was measured:
[1] = Stability of MTAs in liquid solvents (degradation rate); assay type: physicochemical
Experimental: Liquid solvents were also tested for their ability to stabilize representative MTAs SkQ1 and SkQR1. The solvents tested were water solutions of glycerol (10% to 100%), 50% lactulose, and 1,2-propylene glycol (10% to 100%, at 60° C.). Some representative results are shown below (Table 1).

[2] = Storage stability of oxidized SkQ1 formulations (Example 8); assay type: physicochemical
Experimental: The stability of SkQ1 in the prepared solution was investigated by storage at RT and at 60° C. (Table 4).
The stability of SkQ1 in the prepared solution was investigated by storage at 60° C. (Table 5).
The stability of SkQ1 in the prepared composition was investigated by storage at 4° C. in darkness (Table 6).
The stability of SkQ1 in the prepared composition was investigated by storage at 60° C. in darkness (Table 7).
The stability of SkQ1 in the prepared composition was investigated by storage at RT in darkness (Table 8).
The stability of SkQ1 in the prepared composition was investigated by storage at 60° C. in darkness (Table 9).
The stability of SkQ1 in the prepared composition was investigated by storage at RT in darkness (Table 10).
The stability of SkQ1 in the prepared composition was investigated by storage at 60° C. in darkness (Table 11).

alloxan diabetes = assay: Alloxan diabetes, blood glucose level (glucose oxidase method); assay type: in vivo, rats; settings: 250 nM SkQ1 in drinking water (approx. 50 nmol/kg per day) 10 d before and 14 d after alloxan 100 mg/kg s.c.; 2 weeks after alloxan
Experimental: Induction of the alloxan diabetes was performed as follows: Two groups of laboratory rats (20 animals in each group) with free food and water access fed a 250 nM solution of SkQ1 for 10 d. The daily rat consumption was 60 ml water solution (containing 15 nmoles SkQ1). The average weight of rats was 300 g. Thus, rats consumed approximately 50 nmol/kg body weight per day. […] After 10 d, rats were subcutaneously (in the area of the thigh) injected with alloxan dissolved in isotonic salt solution of 0.9% w/v of NaCl (100 mg/kg body weight; groups “Alloxan+SkQ1” and “Alloxan.” Control animals were injected with salt solution without alloxan (groups “Control+SkQ1” and “Control”). After injection, the rats continued to drink water containing SkQ1 (250 nM) during 14 d (group “Alloxan+SkQ1”) or were kept without SkQ1 (group “Alloxan”). Data on glucose blood level was measured by the glucose oxidase method ([…] et al. (1958) J. Lab. Clin. Med., 51:445-460) after 2 weeks of alloxan injection. All data are presented as the mean+/-SE.

[3] = system: cytokines (IL-6, IL-8) protein secretion; assay: IL-6, IL-8 protein secretion induced by TNF-α in EAhy926 cells (ELISA); assay type: cell-based, human; settings: 0.2 nM for 4 d; TNF-α 5 ng/ml for 15 h
Text: The effects of SkQ1 on ICAM-1 mRNA expression and cytokines (IL-6, IL-8) protein secretion induced by TNF-α in EAhy926 human endothelial cells (ATCC collection; catalog number CRL-2922) were examined. TNF-α is a central proinflammatory cytokine stimulating expression of cell adhesion molecules and many inflammatory cytokines. Anti-inflammatory properties of many drugs often rely on their ability to inhibit expression of pro-inflammatory cytokines induced by TNF-α using EAhy926 endothelial cells (Edgell et al. (1983) Proc. Natl. Acad. Sci. USA, 80:3734-7; Lombardi et al. (2009) Eur. J. Cell. Biol., 88:731-42; Manea et al. (2010) Cell Tissue Res., 340:71-9).
300,000 cells were plated on 60 mm^2 culture dishes and after attachment were treated with an SkQ1 solution (0.2 nM in DMEM medium with 10% fetal serum) for 4 d, and then stimulated with TNF-α (0.05 ng/ml for 4 h for ICAM-1 or 5 ng/ml for 15 h for cytokines, respectively). ICAM-1 mRNA expression was determined by real-time PCR (Okada et al. (2005) Invest. Ophtalmol. Vis. Sci., 46:4512-8). Secretion of IL-6 and IL-8 was evaluated by ELISA (Toma et al. (2009) Biochem. Biophys. Res. Commun., 390:877-82; Volanti et al. (2002) Photochem. Photobiol., 75:36-45.) The data is shown as means±S.E. at least for 3 separate experiments.

NFκB = NFκB activation caused by TNFα; assay type: cell-based
Text: Additionally, SkQ1 decreases the phosphorylation and degradation of IkBa caused by TNFα. NFκB is known to be permanently active in many inflammatory diseases, such as inflammatory bowel disease, arthritis, sepsis, gastritis, asthma and atherosclerosis (Monaco et al. (2004) PNAS., 101:5634-9).

- Degradation rate, percent per day ([1]; 400 mkM in 10% 1,2-propylene glycol, at 60° C.): 0.47 percent per day
- Degradation rate, percent per day ([1]; 400 mkM in 10% Glycerol): 0.61 percent per day
- Degradation rate, percent per day ([1]; 400 mkM in 20% Glycerol): 0.51 percent per day
- Degradation rate, percent per day ([1]; 400 mkM in 30% Glycerol): 0.53 percent per day
- Degradation rate, percent per day ([1]; 400 mkM in 40% Glycerol): 0.91 percent per day
- Degradation rate, percent per day ([1]; 400 mkM in 50% 1,2-propylene glycol, at 60° C.): 0.06 percent per day
- Degradation rate, percent per day ([1]; 400 mkM in 50% Glycerol): 1.54 percent per day
- Degradation rate, percent per day ([1]; 400 mkM in 50% lactulose): 9.01 percent per day
- Degradation rate, percent per day ([1]; 400 mkM in 60% Glycerol): 1.92 percent per day
- Degradation rate, percent per day ([1]; 400 mkM in 70% Glycerol): 2.4 percent per day
- Degradation rate, percent per day ([1]; 400 mkM in 80% Glycerol): 3.2 percent per day
- Degradation rate, percent per day ([1]; 400 mkM in 90% Glycerol): 4.18 percent per day
- Degradation rate, percent per day ([1]; 400 mkM in 100% 1,2-propylene glycol, at 60° C.): 0.18 percent per day
- SkQ1, % ([2]; SkQ1 1 mM in 20% glycerol, phosphate buffer pH 4.77, stored at 60° C., day 0): 99.34%
- SkQ1, % ([2]; SkQ1 1 mM in 20% glycerol, phosphate buffer pH 4.77, stored at 60° C., day 19): 95.30%
- SkQ1, % ([2]; SkQ1 1 mM in 20% glycerol, phosphate buffer pH 4.77, stored at RT, day 0): 99.34%
- SkQ1, % ([2]; SkQ1 1 mM in 20% glycerol, phosphate buffer pH 4.77, stored at RT, day 11): 99.71%
- SkQ1, % ([2]; SkQ1 1 mM in 20% glycerol, phosphate buffer pH 4.77, stored at RT, day 13): 99.76%
- SkQ1, % ([2]; SkQ1 1 mM in 20% glycerol, phosphate buffer pH 4.77, stored at RT, day 14): 99.68%
- SkQ1, % ([2]; SkQ1 1 mM in 20% glycerol, phosphate buffer pH 4.77, stored at RT, day 17): 99.62%
- SkQ1, % ([2]; SkQ1 1 mM in 20% glycerol, phosphate buffer pH 4.77, stored at RT, day 19): 99.63%
- SkQ1, % ([2]; SkQ1 1 mM in 20% glycerol, phosphate buffer pH 4.77, stored at RT, day 21): 99.52%
- SkQ1, % ([2]; SkQ1 1 mM in 20% glycerol, phosphate buffer pH 4.77, stored at RT, day 24): 99.57%
- SkQ1, % ([2]; SkQ1 1 mM in 20% glycerol, phosphate buffer pH 4.77, stored at RT, day 61): 99.49%
- SkQ1, % ([2]; SkQ1 with PEG-4000, solid, 4° C. in darkness, day 18): >99.9%
- SkQ1, % ([2]; SkQ1 with PEG-4000, solid, 4° C. in darkness, day 19): 99.83%
- SkQ1, % ([2]; SkQ1 with PEG-4000, solid, 4° C. in darkness, day 20): 99.80%
- SkQ1, % ([2]; SkQ1 with dextran and p-ABA, solid, 60° C. in darkness, day 0): 97.13%
- SkQ1, % ([2]; SkQ1 with dextran and p-ABA, solid, 60° C. in darkness, day 6): 39.22%
- SkQ1, % ([2]; SkQ1 with dextran and p-ABA, solid, 60° C. in darkness, day 15): 7.07%
- SkQ1, % ([2]; SkQ1 with dextran, solid, 60° C. in darkness, day 0): 96.71%
- SkQ1, % ([2]; SkQ1 with dextran, solid, 60° C. in darkness, day 6): 20.66%
- SkQ1, % ([2]; SkQ1 with dextran, solid, 60° C. in darkness, day 15): 24.14%
- SkQ1, % ([2]; SkQ1 with dextran, solid, 60° C. in darkness, day 25): 18.93%
- SkQ1, % ([2]; SkQ1 with myoinosite, solid, RT in darkness, day 0): 95.88%
- SkQ1, % ([2]; SkQ1 with myoinosite, solid, RT in darkness, day 5): 96.86%
- SkQ1, % ([2]; SkQ1 with myoinosite, solid, RT in darkness, day 6): 95.99%
- SkQ1, % ([2]; SkQ1 with myoinosite, solid, RT in darkness, day 15): 92.26%
- SkQ1, % ([2]; SkQ1 with p-aminobenzoic acid (p-ABA), solid, RT in darkness, day 0): 100%
- SkQ1, % ([2]; SkQ1 with p-aminobenzoic acid (p-ABA), solid, RT in darkness, day 30): 58.42%
- SkQ1, % ([2]; presumably SkQ1 in 50% 1,2-propylene glycol with lactic acid (10 eq), 60° C., day 0): >99.9%
- SkQ1, % ([2]; presumably SkQ1 in 50% 1,2-propylene glycol with lactic acid (10 eq), 60° C., day 72): 96.6%
- SkQ1, % ([2]; presumably SkQ1 in 50% 1,2-propylene glycol with pyruvic acid (10 eq), 60° C., day 0): >99.9%
- SkQ1, % ([2]; presumably SkQ1 in 50% 1,2-propylene glycol with pyruvic acid (10 eq), 60° C., day 72): 93.2%
Structure (SMILES): CC1=C(C)C(=O)C(CCCCCCCCCC[P+](c2ccccc2)(c2ccccc2)c2ccccc2)=CC1=O [SkQ1]
- blood glucose, lower compared to animals without SkQ1 treatment (alloxan diabetes): about 2 fold
- expression of inflammatory cytokines (IL-6, IL-8) [3]: prevents excessive expression
- activation of NFκB (NFκB): prevent activation
- phosphorylation and degradation of IkBa caused by TNFα (NFκB): decreases
- translocation of transcription factor p65 (RelA) from the cytoplasm to the nucleus (NFκB): prevent translocation
